Columns and labels:
[1] = tested on: corneal damage in dry eye model (exorbital lacrimal gland removed); assay: Healing effect test for corneal damage (dry eye model, fluorescein staining score); type: in vivo, male SD rats
Experimental: Healing Effect Test for Corneal Damage Using male SD rats, a dry eye model was produced according to the method of Fujihara et al. (Invest. Ophthalmol. Vis. Sci 42 (1): 96-100 (2001)). After producing the dry eye model, cure rate of a corneal damage was determined according to the method of Miyata et al. (Japanese Review of Clinical Ophthalmology, 48 (2): 183-188 (1994)). A male SD rat was systemically anesthetized by an interperitoneal administration of Nembutal in an amount of 35 mg/kg. Subsequently, exorbital lacrimal gland was removed, and corneal damage was induced over two months. Next, a 0.01% solution of the present compound dissolved in a physiological saline solution was instilled into one eye, while the physiological saline solution (control) was instilled into the other eye, respectively, six times per day for 7 days. On day 7 after initiating the instillation, impaired part of the cornea was stained with fluorescein. Score of upper, middle and lower parts of the cornea were assessed according to the following criteria on the extent of staining by fluorescein, respectively. […] Similar test was also conducted on normal eyes as described above to determine the mean value of total scores on each part described above. 0: No punctate staining 1: Scattered staining (punctate, separated staining) 2: Moderate staining (a part of punctate staining being adjacent) 3: Heavy staining (punctate, barely separated staining) Improvement ratio of the 0.01% eye drop administration group of the present compound is shown in Table 1 calculated on the basis of the mean value of total scores of the aforementioned respective parts in the group (control) administered with a physiological saline solution eye drop as a standard value (improvement ratio: 0%), according to the following calculating formula. Mean value of the scores was obtained by averaging 8 examples in each case. [formula]

[2] = hydrochloride compared with free form; cited from earlier work
[3] = hydrochloride compared with free form; cited from earlier work; remark: listed apart in the source

SMILES | Improvement ratio (%) ([1]; 0.01% eye drop, six times per day for 7 days, calculated from mean total scores with saline control as 0%) | Mean value of total scores ([1]; fluorescein staining scores (0-3) of upper, middle and lower cornea summed, 0.01% solution in physiological saline instilled six times per day for 7 days, day 7, mean of 8, normal eye 2.9, control 6.1) | Improvement of the corneal damage (in words) ([1]; rat dry eye model, 0.01% eye drop) | Solubility in comparison with the free form [2] | Oral absorptivity [3]
COc1ccc2nc(COc3ccc(CC4SC(=O)NC4=O)cc3)n(C)c2c1 (centres unmarked) [Present compound, 5-[4-(6-methoxy-1-methyl-1H-benzimidazol-2-ylmethoxy)benzyl]thiazolidine-2,4-dione] | 53 | 4.4 | markedly improves the corneal damage | – | –
COc1ccc2nc(COc3ccc(CC4SC(=O)NC4=O)cc3)n(C)c2c1 (centres unmarked) [5-[4-(6-methoxy-1-methyl-1H-benzimidazol-2-ylmethoxy)benzyl]thiazolidine-2,4-dione] | – | – | – | remarkable elevation of solubility | excellent oral absorptivity

Source: patent US7358255B2, “Therapeutic agent for keratoconjunctival disorder” (Santen Pharmaceutical Co., Ltd., priority 2003, dated 2008)
